Consider one compound from patent US12492208B2, “Crystal of pyrimidine compound” (TAIHO PHARMACEUTICAL CO., LTD., priority 2020, dated 2025).

For series [1], the system named is Luciferase gene-introduced HER2 expressing cell line (NCI-N87-Luc). Briefly: Antitumor effect confirmation test (in vivo) on direct brain transplantation models. The settings on record: 25 mg/kg/day oral, 21 days. Further details: species or system nude mouse (BALB/cAJcl-nu/nu). The protocol: In order to confirm the antitumor effects of a test compound on direct brain transplantation models, NCI-N87-Luc, which was obtained by introducing a luciferase gene into NCI-N87 that was a human stomach cancer tumor cell line purchased from American Type Culture Collection, was used. The NCI-N87-Luc was added into a 10% fetal bovine serum (FBS)-containing RPMI-1640 medium (supplemented with 4.5 g/L glucose, 10 mM HEPES, and 1 mM sodium pyruvate) (Wako Pure Chemical Industries, Ltd.), and this cell line was then cultured in a 5% CO2 incubator at 37° C.
The NCI-N87-Luc cells were re-suspended in PBS in a concentration of 6.25×10^7 cells/mL. […]
As a reference of the amount of brain tumor, approximately 3 weeks after the transplantation, Total Flux (Photon/sec) was measured in all of the survival cases, using IVIS (PerkinElmer, Inc., model: Lumina II). […]
The value obtained by logarithmic transformation (Log 10) of the total flux on Day 22 in each group was analyzed by a significance test. […] A body weight change percentage (Body weight change; BWCn) from the body weight on the n^th day (BWn) was calculated according to the following equation: BWCn (%)=[(body weight on n^th day)−(body weight on grouping day)]/[(body weight on grouping day)]×100.

Series [2] has as its system NCI-N87 cells. Briefly: Growth inhibitory activity against HER2 expressing cell line (NCI-N87). The following applies: Homo sapiens, NCI-N87, 72 h; 3 days, CellTiter-Glo 2.0. It is filed as cell-based. The method, then:
NCI-N87 cells as a HER2 overexpressing human stomach cancer cell line (American Type Culture Collection, Cat No. ATCC (registered trademark) CRL-5822) were suspended in an RPMI1640 medium (Wako Pure Chemical Industries, Ltd.) supplemented with 10% fetal bovine serum. Subsequently, the cell suspension was seeded in each well of a 96-well flat-bottom microplate, and was then cultured in a 5% carbon dioxide gas-containing culture vessel at 37° C. for 1 day. Thereafter, the compound (I) obtained according to the method in Synthesis Example 1 was dissolved in DMSO, and the compound was diluted to 1000 times the final concentration in DMSO. The compound (I) in the DMSO solution was diluted with the medium used in the suspension of the cells, and the obtained solution was then added to each well of the culture plate, so that the final concentration of DMSO became 0.1%. Regarding a control well, DMSO was diluted with the medium used in the suspension of the cells, and the obtained solution was then added to each well of the culture plate, so that the final concentration of DMSO became 0.1%. […] After completion of the culture for 3 days in the presence of the compound, the cells were counted using CellTiter-Glo 2.0 (manufactured by Promega) in accordance with the protocols recommended by Promega. The growth inhibition percentage was calculated according to the following equation. […]

The test system of series [3] is Ba/F3-HER2insYVMA cells. Briefly: Growth inhibitory activity against HER2 exon 20 insertion mutant expressing cell line. The settings on record: Mus musculus, 72 h, 3 days, CellTiter-Glo 2.0, read-out: HER2ex20insYVMA cell growth inhibitory activity IC50 value. In kind it is cell-based. The method, then:
Growth inhibitory activity against the HER2 exon 20 insertion mutant was measured using Ba/F3 cells that were a mouse B lymphocyte precursor cell line, into which a human HER2 exon 20 insertion mutant gene had been introduced. The Ba/F3 cells were maintained in an RPMI-1640 medium (Thermo Fisher Scientific) supplemented with 10% fetal bovine serum (FBS), 100 U/mL penicillin, 100 μg/mL streptomycin (Thermo Fisher Scientific) and 1 ng/mL mouse interleukin-3 (mIL-3) (CST).
Upon evaluation of cell growth inhibitory activity, the Ba/F3-HER2insYVMA cells were suspended in an RPMI-1640 medium supplemented with 10% FBS, 100 U/mL penicillin, and 100 μg/mL streptomycin. The cell suspension was seeded in each well of a 96-well flat-bottom microplate, and was then cultured in a 5% carbon dioxide gas-containing culture vessel at 37° C. for 1 day. The compound (I) obtained according to the method in Synthesis Example 1 was dissolved in DMSO, and was then diluted with DMSO or the medium used in the suspension of the cells. The obtained solution was then added to each well of the culture plate, so that the final concentration of DMSO became 0.2%. […] After completion of the culture for 3 days in the presence of the compound, the cells were counted using CellTiter-Glo 2.0 (manufactured by Promega), and the growth inhibition percentage was then calculated according to the following equation. […]

With `C=CC(=O)N1C[C@H](n2c(C#CC3CC3)c(C(=O)N[C@H](C)c3ccccc3)c3c(N)ncnc32)C[C@@H]1C` [compound (I), 7-((3R,5S)-1-acryloyl-5-methylpyrrolidin-3-yl)-4-amino-6-(cyclopropylethynyl)-N—((R)-1-phenylethyl)-7H-pyrrolo[2,3-d]pyrimidine-5-carboxamide], the “body weight reduction of −20% or more” value in series [1] (all mice) was “not observed”. Moreover, the “Log 10 of the total flux on Day 22 versus control group” value in series [1] (once a day, significance level (both sides) 5%) is “statistically significantly lower”. Besides, the half-inhibitory concentration (IC50) is 0.0099 µM in series [2] and 0.029 µM in series [3].
